What follows are compounds tested against PB2 (Influenza A virus, UniProt P03428) (assay: biochemical).
Format: binding

Sequence of PB2 (P03428 whole entry, looked up): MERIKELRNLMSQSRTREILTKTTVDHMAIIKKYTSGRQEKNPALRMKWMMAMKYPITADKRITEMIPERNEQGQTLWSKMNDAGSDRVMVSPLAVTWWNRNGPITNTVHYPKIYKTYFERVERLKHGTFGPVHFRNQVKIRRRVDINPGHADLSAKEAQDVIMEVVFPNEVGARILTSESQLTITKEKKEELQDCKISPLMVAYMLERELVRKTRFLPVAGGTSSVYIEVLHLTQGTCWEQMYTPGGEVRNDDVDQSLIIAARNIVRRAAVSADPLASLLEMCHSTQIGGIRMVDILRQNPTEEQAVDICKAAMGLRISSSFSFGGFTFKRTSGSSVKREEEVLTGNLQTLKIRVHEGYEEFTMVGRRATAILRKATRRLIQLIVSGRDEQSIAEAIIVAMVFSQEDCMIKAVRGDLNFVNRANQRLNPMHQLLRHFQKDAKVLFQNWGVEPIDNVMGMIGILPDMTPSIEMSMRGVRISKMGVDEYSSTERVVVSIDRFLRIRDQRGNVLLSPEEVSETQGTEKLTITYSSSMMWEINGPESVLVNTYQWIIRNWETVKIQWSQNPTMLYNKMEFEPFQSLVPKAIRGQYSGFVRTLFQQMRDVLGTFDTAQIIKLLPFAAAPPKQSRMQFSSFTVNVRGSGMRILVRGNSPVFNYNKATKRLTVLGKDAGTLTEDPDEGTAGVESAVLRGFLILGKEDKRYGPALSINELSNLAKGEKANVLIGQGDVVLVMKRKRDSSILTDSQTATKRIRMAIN

Question: O=C(O)COCCNC(=O)OCc1ccnc(C(=O)N[C@@H]2CCC[C@H](Nc3nc(-c4c[nH]c5ncc(F)cc45)ncc3F)C2)c1 [Compound A118] was tested. Which EC50 did it give?
Answer: < 5 µM

Question: For CCOCCOCCCCCN(CC)C(=O)N[C@H]1CCC[C@@H](Nc2nc(-c3c[nH]c4ncc(F)cc34)ncc2F)C1 [Compound A227], which EC50 is on record?
Answer: > 100 µM

Question: With O=C(N[C@@H]1CCC[C@H](Nc2nc(-c3c[nH]c4ncc(F)cc34)ncc2F)C1)c1cc(COCCCCCOCc2ccc(F)cc2)ccn1 [Compound A95] as the compound, how does the EC50 read?
Answer: > 100 µM

Question: How did the EC50 turn out when CCOCCOCCCCCN(C(=O)N[C@H]1CCC[C@@H](Nc2nc(-c3c[nH]c4ncc(F)cc34)ncc2Cl)C1)C(C)C [Compound A250] was run?
Answer: > 100 µM

Question: For CCOC(=O)CCN1CCC[C@@H](Nc2nc(-c3c[nH]c4ncc(F)cc34)ncc2F)C1 [Compound C14], which EC50 is on record?
Answer: 5 to 25 µM

Question: Which EC50 does the source give for CCOc1cccc(-c2cncc(C(=O)N[C@@H]3CCC[C@H](Nc4nc(-c5c[nH]c6ncc(F)cc56)ncc4F)C3)c2)c1 [Compound A68] here?
Answer: 25 to 50 µM

Question: With CCOCCCCCOCCN(C)C(=O)N[C@H]1CCC[C@@H](Nc2nc(-c3c[nH]c4ncc(F)cc34)ncc2F)C1 [Compound A193] as the compound, how does the EC50 read?
Answer: > 100 µM

Question: How did the EC50 turn out when Cc1cncc(C(=O)N[C@@H]2CCC[C@H](Nc3nc(-c4c[nH]c5ncc(F)cc45)ncc3F)C2)c1 [Compound A64] was run?
Answer: < 5 µM

Question: How did the EC50 turn out when Cc1cccc(C(=O)N[C@H]2CCC[C@@H](Nc3nc(-c4c[nH]c5ncc(F)cc45)ncc3F)C2)n1 [Compound A47] was run?
Answer: 5 to 25 µM

Question: Which EC50 does the source give for CCOCCOc1cccc(CC(=O)N[C@H]2CCC[C@@H](Nc3nc(-c4c[nH]c5ncc(F)cc45)ncc3F)C2)c1 [Compound A279] here?
Answer: > 100 µM

Question: CCOCCCCCOCCN(Cc1ccccc1)C(=O)N[C@H]1CCC[C@@H](Nc2nc(-c3c[nH]c4ncc(F)cc34)ncc2F)C1 [Compound A196] was tested. Which EC50 did it give?
Answer: > 100 µM

Question: How did the EC50 turn out when O=C(O)COCCOCCOCCC(=O)N[C@H]1CCC[C@@H](Nc2nc(-c3c[nH]c4ncc(F)cc34)ncc2F)C1 [Compound A269] was run?
Answer: 5 to 25 µM

Question: Which EC50 does the source give for CCCCCOCCCc1ccnc(C(=O)N[C@@H]2CCC[C@H](Nc3nc(-c4c[nH]c5ncc(F)cc45)ncc3F)C2)c1 [Compound A27] here?
Answer: > 100 µM

Question: Which EC50 does the source give for CCOCCOCCCCCN(C(=O)N[C@H]1CCC[C@@H](Nc2nc(-c3c[nH]c4ncc(F)cc34)ncc2F)C1)C1CC1 [Compound A242] here?
Answer: > 100 µM

Question: Which EC50 does the source give for O=C(N[C@H]1CCC[C@@H](Nc2nc(-c3c[nH]c4ncc(F)cc34)ncc2F)C1)c1cc(CC(O)CO)ccn1 (some centres unmarked) [Compound A50] here?
Answer: < 5 µM

Question: Which EC50 does the source give for CCCOCCCCCCCN(C)C(=O)N[C@@H]1CCC[C@H](Nc2nc(-c3c[nH]c4ncc(F)cc34)ncc2F)C1 [Compound A199] here?
Answer: > 100 µM

Question: Which EC50 does the source give for O=C(NCC(O)CO)OCc1ccnc(C(=O)N[C@H]2CCC[C@@H](Nc3nc(-c4c[nH]c5ncc(F)cc45)ncc3F)C2)c1 (some centres unmarked) [Compound A99] here?
Answer: < 5 µM

Question: Which EC50 does the source give for NCCOCCOCCOCCNC(=O)N[C@@H]1CCC[C@H](Nc2nc(-c3c[nH]c4ncc(F)cc34)ncc2F)C1 [Compound A170] here?
Answer: > 100 µM

Question: CCNC(=O)C(NC(=O)OCc1ccnc(C(=O)N[C@H]2CCC[C@@H](Nc3nc(-c4c[nH]c5ncc(F)cc45)ncc3F)C2)c1)C(C)(C)C (some centres unmarked) [Compound A148] was tested. Which EC50 did it give?
Answer: 50 to 100 µM

Question: For CN(CCOCCOCCOCCO)C(=O)N[C@H]1CCC[C@@H](Nc2nc(-c3c[nH]c4ncc(F)cc34)ncc2F)C1 [Compound A191], which EC50 is on record?
Answer: 25 to 50 µM

Question: For CC(C)[C@H](NC(=O)OCc1ccnc(C(=O)N[C@@H]2CCC[C@H](Nc3nc(-c4c[nH]c5ncc(F)cc45)ncc3F)C2)c1)C(=O)O [Compound A135], which EC50 is on record?
Answer: 5 to 25 µM

Question: O=C(N[C@@H]1CCC[C@H](Nc2nc(-c3c[nH]c4ncc(F)cc34)ncc2F)C1)c1cc(CCCOCCOCc2ccccc2)ccn1 [Compound A34] was tested. Which EC50 did it give?
Answer: > 100 µM

Question: For CN(CCOCCOCCOCCO)C(=O)N[C@H]1CCC[C@@H](Nc2nc(-c3c[nH]c4ncc(F)cc34)ncc2F)C1 [Compound A190], which EC50 is on record?
Answer: > 100 µM

Question: Which EC50 does the source give for CC(C)[C@@H](NC(=O)OCc1ccnc(C(=O)N[C@@H]2CCC[C@H](Nc3nc(-c4c[nH]c5ncc(F)cc45)ncc3F)C2)c1)C(=O)O [Compound A142] here?
Answer: < 5 µM

Question: For O=C(NCc1ccc(F)cc1)OCc1ccnc(C(=O)N[C@@H]2CCC[C@H](Nc3nc(-c4c[nH]c5ncc(F)cc45)ncc3F)C2)c1 [Compound A92], which EC50 is on record?
Answer: > 100 µM

Question: Which EC50 does the source give for O=C(N[C@@H]1CCC[C@H](Nc2nc(-c3c[nH]c4ncc(F)cc34)ncc2F)C1)c1cc(Oc2ccccc2)ccn1 [Compound A66] here?
Answer: > 100 µM

Question: With CCOc1ccccc1OCCCC1CCCN(C(=O)N[C@H]2CCC[C@@H](Nc3nc(-c4c[nH]c5ncc(F)cc45)ncc3F)C2)C1 (some centres unmarked) [Compound A8] as the compound, how does the EC50 read?
Answer: > 100 µM

Question: Which EC50 does the source give for CCOCCOCCOCCNC(=O)N[C@H]1CCC[C@@H](Nc2nc(-c3ccnc(Cl)c3)ncc2F)C1 [Compound A197] here?
Answer: > 100 µM

Question: Which EC50 does the source give for CCOCCOCCCCCN(CC)C(=O)N[C@H]1CCC[C@@H](Nc2nc(-c3c[nH]c4ncc(F)cc34)ncc2F)C1 [Compound A228] here?
Answer: 50 to 100 µM

Question: With CCOCCOc1cccc(CC(=O)N[C@@H]2CCC[C@H](Nc3nc(-c4c[nH]c5ncc(F)cc45)ncc3F)C2)c1 [Compound A273] as the compound, how does the EC50 read?
Answer: 50 to 100 µM

Question: CCOc1ccccc1OCCCCCN(C)C(=O)N[C@@H]1CCC[C@H](Nc2nc(-c3c[nH]c4ncc(F)cc34)ncc2F)C1 [Compound A216] was tested. Which EC50 did it give?
Answer: > 100 µM

Question: For CCC(CC)OCCNC(=O)OCc1ccnc(C(=O)N[C@H]2CCC[C@@H](Nc3nc(-c4c[nH]c5ncc(F)cc45)ncc3F)C2)c1 [Compound A128], which EC50 is on record?
Answer: > 100 µM

Question: With CCOCCOCCCc1ccnc(C(=O)N[C@H]2CCC[C@@H](Nc3nc(-c4c[nH]c5ncc(F)cc45)ncc3F)C2)c1 [Compound A24] as the compound, how does the EC50 read?
Answer: 50 to 100 µM

Question: How did the EC50 turn out when O=C(N[C@H]1CCC[C@@H](Nc2nc(-c3c[nH]c4ncc(F)cc34)ncc2F)C1)c1cnc2ccccc2c1 [Compound A55] was run?
Answer: 5 to 25 µM

Question: CCOCCOCCOCCNC(=O)N(CCCCc1ccccc1)[C@H]1CCC[C@@H](Nc2nc(-c3c[nH]c4ncc(F)cc34)ncc2F)C1 [Compound A194] was tested. Which EC50 did it give?
Answer: > 100 µM

Question: With CCOCCOCCOCCNC(=O)N[C@@H]1CCC[C@H](Nc2nc(-c3c[nH]c4ncc(F)cc34)ncc2F)C1 [Compound A167] as the compound, how does the EC50 read?
Answer: > 100 µM

Question: CCOCCCCCCc1ccnc(C(=O)N[C@H]2CCC[C@@H](Nc3nc(-c4c[nH]c5ncc(F)cc45)ncc3F)C2)c1 [Compound A30] was tested. Which EC50 did it give?
Answer: > 100 µM

Question: CC(NC(=O)OCc1ccnc(C(=O)N[C@H]2CCC[C@@H](Nc3nc(-c4c[nH]c5ncc(F)cc45)ncc3F)C2)c1)c1ccccn1 (some centres unmarked) [Compound A136] was tested. Which EC50 did it give?
Answer: 5 to 25 µM

Question: With CCOCCOCCOCCNC(=O)N[C@@H]1CCC[C@H](Nc2nc(-c3c[nH]c4ncc(F)cc34)ncc2F)C1 [Compound A264] as the compound, how does the EC50 read?
Answer: > 100 µM

Question: Which EC50 does the source give for CCOCCOCCCCCN(CC(=O)N(C)C)C(=O)N[C@@H]1CCC[C@H](Nc2nc(-c3c[nH]c4ncc(F)cc34)ncc2F)C1 [Compound B7] here?
Answer: 25 to 50 µM

Question: How did the EC50 turn out when O=C(NCc1cccc(C(=O)O)c1)OCc1ccnc(C(=O)N[C@@H]2CCC[C@H](Nc3nc(-c4c[nH]c5ncc(F)cc45)ncc3F)C2)c1 [Compound A98] was run?
Answer: < 5 µM

Question: Which EC50 does the source give for O=C(NCc1ccccc1F)OCc1ccnc(C(=O)N[C@H]2CCC[C@@H](Nc3nc(-c4c[nH]c5ncc(F)cc45)ncc3F)C2)c1 [Compound A124] here?
Answer: > 100 µM

Question: With CCOCCOCCCCCN(Cc1ccncc1)C(=O)N[C@H]1CCC[C@@H](Nc2nc(-c3c[nH]c4ncc(F)cc34)ncc2F)C1 [Compound A208] as the compound, how does the EC50 read?
Answer: > 100 µM

Question: For O=C(O)CC(=O)N1CCC[C@H](Nc2nc(-c3c[nH]c4ncc(F)cc34)ncc2F)C1 [Compound C10], which EC50 is on record?
Answer: < 5 µM

Question: For O=C(N[C@@H]1CCC[C@H](Nc2nc(-c3c[nH]c4ncc(F)cc34)ncc2F)C1)c1cc(CCCOCCOCCO)ccn1 [Compound A59], which EC50 is on record?
Answer: < 5 µM

Question: With O=C(NCC1CCCO1)OCc1ccnc(C(=O)N[C@H]2CCC[C@@H](Nc3nc(-c4c[nH]c5ncc(F)cc45)ncc3F)C2)c1 (some centres unmarked) [Compound A106] as the compound, how does the EC50 read?
Answer: 5 to 25 µM

Question: How did the EC50 turn out when CCCCCCCCCCCN(Cc1ccccc1)C(=O)N[C@@H]1CCC[C@H](Nc2nc(-c3c[nH]c4ncc(F)cc34)ncc2F)C1 [Compound A185] was run?
Answer: > 100 µM

Question: How did the EC50 turn out when CCNC(=O)CNC(=O)OCc1ccnc(C(=O)N[C@H]2CCC[C@@H](Nc3nc(-c4c[nH]c5ncc(F)cc45)ncc3F)C2)c1 [Compound A111] was run?
Answer: 5 to 25 µM

Question: Which EC50 does the source give for CCOCCOCCOCCNC(=O)N(CCOCc1ccccc1)[C@@H]1CCC[C@H](Nc2nc(-c3c[nH]c4ncc(F)cc34)ncc2F)C1 [Compound B5] here?
Answer: > 100 µM

Question: With CCOCCOCCCc1cncc(C(=O)N[C@H]2CCC[C@@H](Nc3nc(-c4c[nH]c5ncc(F)cc45)ncc3F)C2)c1 [Compound A23] as the compound, how does the EC50 read?
Answer: > 100 µM

Question: Which EC50 does the source give for CCOCCCc1cccc(CCN(C)C(=O)N[C@H]2CCC[C@@H](Nc3nc(-c4c[nH]c5ncc(F)cc45)ncc3F)C2)n1 [Compound A213] here?
Answer: > 100 µM

Question: Which EC50 does the source give for O=C(N[C@H]1CCC[C@@H](Nc2nc(-c3c[nH]c4ncc(F)cc34)ncc2F)C1)c1cccnc1 [Compound A37] here?
Answer: > 100 µM

Question: Which EC50 does the source give for CCCCCCOCCCCN(C)C(=O)N[C@H]1CCC[C@@H](Nc2nc(-c3c[nH]c4ncc(F)cc34)ncc2F)C1 [Compound A205] here?
Answer: > 100 µM

Question: With CCOCCOCCCCCN(CC(=O)O)C(=O)N[C@@H]1CCC[C@H](Nc2nc(-c3c[nH]c4ncc(F)cc34)ncc2F)C1 [Compound A202] as the compound, how does the EC50 read?
Answer: 5 to 25 µM

Question: With CCOCCCc1cncc(CCN(C)C(=O)N[C@H]2CCC[C@@H](Nc3nc(-c4c[nH]c5ncc(F)cc45)ncc3F)C2)c1 [Compound A215] as the compound, how does the EC50 read?
Answer: > 100 µM

Question: How did the EC50 turn out when NCCOCCOCCOCC(=O)N1CCC[C@H](Nc2nc(-c3c[nH]c4ncc(F)cc34)ncc2F)C1 [Compound C4] was run?
Answer: 5 to 25 µM

Question: With O=C(N[C@H]1CCC[C@@H](Nc2nc(-c3c[nH]c4ncc(F)cc34)ncc2F)C1)N1CCCC(CCCOCCOCc2ccccc2)C1 (some centres unmarked) [Compound A9] as the compound, how does the EC50 read?
Answer: > 100 µM

Question: How did the EC50 turn out when O=C(NCCc1ccc(F)cc1)OCc1ccnc(C(=O)N[C@H]2CCC[C@@H](Nc3nc(-c4c[nH]c5ncc(F)cc45)ncc3F)C2)c1 [Compound A101] was run?
Answer: > 100 µM

Question: Which EC50 does the source give for CCCCCOCCOCCN(Cc1ccccc1)C(=O)N[C@@H]1CCC[C@H](Nc2nc(-c3c[nH]c4ncc(F)cc34)ncc2F)C1 [Compound A179] here?
Answer: > 100 µM

Question: Which EC50 does the source give for O=C(N[C@H]1CCC[C@@H](Nc2nc(-c3c[nH]c4ncc(F)cc34)ncc2F)C1)N1CCCC(CCCOCCO)C1 (some centres unmarked) [Compound A10] here?
Answer: 5 to 25 µM

Question: With O=C(N[C@H]1CCC[C@@H](Nc2nc(-c3c[nH]c4ncc(F)cc34)ncc2F)C1)c1cncc2ccccc12 [Compound A65] as the compound, how does the EC50 read?
Answer: 25 to 50 µM

Question: For COc1ccc(CNC(=O)OCc2ccnc(C(=O)N[C@H]3CCC[C@@H](Nc4nc(-c5c[nH]c6ncc(F)cc56)ncc4F)C3)c2)cc1OC [Compound A126], which EC50 is on record?
Answer: > 100 µM
